Test results taken from US20150164762A1, “USE OF ETHANOLAMINE PHOSPHATE” (priority 2012, published 2015).

Tested on: BEAS-2B
Assay: Comprehensive gene expression analysis with Whole Human Genome DNA microarray after EP treatment
Type: cell-based
Experimental: Cells of the established normal human airway epithelial cell line BEAS-2B were used in the experiment. These cells were expansively cultured in 10% FBS RPMI-1640, and seeded at a density of 1×10^5/cm^2 on a 24-well plate. After 24 hours 0.1% FBS RPMI-1640 was substituted, and EP was administered to a final concentration of 0 or 1 mM (n=4). After 24 hours, the cells were used as the DNA microarray samples. RNA was extracted using a QIAGEN RNeasy Mini Kit. The DNA microarray test was performed using a Whole Human Genome DNA microarray 4×44K (Agilent), and the necessary labeling reagents and the like for the DNA microarray test were all from Agilent. The DNA microarray test data were analyzed statistically with GeneSpring (Agilent) dedicated analysis software, and gene function analysis (Gene Ontology (GO) analysis) was performed based on differential expression. The purpose of the GO analysis is to determine stochastically the degree to which gene sets with statistically significant differential expression correspond to known functional classification gene sets. […] The p-value is calculated according to the following formula.

[1] = probe A_23_P92499, 1 mM EP, 24 h
[2] = probe A_23_P94754, NM_005118, EP vs control
[3] = probe A_23_P94754, 1 mM EP, 24 h
[4] = probe A_23_P104798, NM_001562, EP vs control
[5] = probe A_23_P104881, 1 mM EP, 24 h
[6] = probe A_23_P105138, NM_001752, EP vs control
[7] = probe A_23_P105138, 1 mM EP, 24 h
[8] = probe A_23_P105803, 1 mM EP, 24 h
[9] = probe A_23_P110052, 1 mM EP, 24 h
[10] = probe A_23_P110151, 1 mM EP, 24 h
[11] = probe A_23_P114662, NM_001889, EP vs control
[12] = probe A_23_P115286, 1 mM EP, 24 h
[13] = probe A_23_P118061, 1 mM EP, 24 h
[14] = probe A_23_P118174, 1 mM EP, 24 h
[15] = probe A_23_P122052, NM_001008397, EP vs control
[16] = probe A_23_P122216, NM_002317, EP vs control
[17] = probe A_23_P122216, 1 mM EP, 24 h
[18] = probe A_23_P122775, NM_032730, EP vs control
[19] = probe A_23_P126844, 1 mM EP, 24 h
[20] = probe A_23_P127322, NM_018055, EP vs control
[21] = probe A_23_P127406, NM_018039, EP vs control
[22] = probe A_23_P128050, 1 mM EP, 24 h
[23] = probe A_23_P128215, 1 mM EP, 24 h
[24] = probe A_23_P128230, 1 mM EP, 24 h
[25] = probe A_23_P129313, NM_001159508, EP vs control
[26] = probe A_23_P131588, NM_014482, EP vs control
[27] = probe A_23_P132388, NM_005138, EP vs control
[28] = probe A_23_P134925, 1 mM EP, 24 h
[29] = probe A_23_P135024, 1 mM EP, 24 h
[30] = probe A_23_P135248, NM_006664, EP vs control
[31] = probe A_23_P136116, NM_001004320, EP vs control
[32] = probe A_23_P136493, NM_013962, EP vs control
[33] = probe A_23_P138635, 1 mM EP, 24 h
[34] = probe A_23_P143242, 1 mM EP, 24 h
[35] = probe A_23_P145357, 1 mM EP, 24 h
[36] = probe A_23_P146644, 1 mM EP, 24 h

NCCOP(=O)(O)O [EP, Ethanolamine phosphate]
CIDEC expression log2 [ratio] (probe A_23_P92025, 1 mM EP, 24 h): −0.754
TLR2 expression R*: Ratio to control [1]: 0.632 times
TLR2 expression log2 [ratio] [1]: −0.662
TNFSF15 gene expression, R* ratio to control [2]: 0.399 times
TNFSF15 gene expression, log2 [ratio] [2]: −1.327
TNFSF15 expression R*: Ratio to control [3]: 0.399 times
TNFSF15 expression log2 [ratio] [3]: −1.327
IL18 gene expression, R* ratio to control [4]: 0.641 times
IL18 gene expression, log2 [ratio] [4]: −0.641
ROBO4 expression R*: Ratio to control [5]: 1.785 times
ROBO4 expression log2 [ratio] [5]: 0.836
CAT gene expression, R* ratio to control [6]: 1.505 times
CAT gene expression, log2 [ratio] [6]: 0.589
CAT expression R*: Ratio to control [7]: 1.505 times
CAT expression log2 [ratio] [7]: 0.589
FGF9 expression R*: Ratio to control [8]: 1.606 times
FGF9 expression log2 [ratio] [8]: 0.684
FOXL2 expression R*: Ratio to control [9]: 0.352 times
FOXL2 expression log2 [ratio] [9]: −1.504
ARHGAP24 expression R*: Ratio to control [10]: 1.670 times
ARHGAP24 expression log2 [ratio] [10]: 0.740
CRYZ gene expression, R* ratio to control [11]: 1.632 times
CRYZ gene expression, log2 [ratio] [11]: 0.707
BCL10 expression R*: Ratio to control [12]: 0.542 times
BCL10 expression log2 [ratio] [12]: −0.883
CKLF expression R*: Ratio to control [13]: 1.501 times
CKLF expression log2 [ratio] [13]: 0.586
PLK1 expression R*: Ratio to control [14]: 2.447 times
PLK1 expression log2 [ratio] [14]: 1.291
GPX8 gene expression, R* ratio to control [15]: 1.413 times
GPX8 gene expression, log2 [ratio] [15]: 0.499
LOX gene expression, R* ratio to control [16]: 1.637 times
LOX gene expression, log2 [ratio] [16]: 0.711
LOX expression R*: Ratio to control [17]: 1.637 times
LOX expression log2 [ratio] [17]: 0.711
RTN4IP1 gene expression, R* ratio to control [18]: 1.436 times
RTN4IP1 gene expression, log2 [ratio] [18]: 0.522
TNFRSF25 expression R*: Ratio to control [19]: 0.532 times
TNFRSF25 expression log2 [ratio] [19]: −0.909
NODAL gene expression, R* ratio to control [20]: 0.450 times
NODAL gene expression, log2 [ratio] [20]: −1.154
KDM4D gene expression, R* ratio to control [21]: 1.448 times
KDM4D gene expression, log2 [ratio] [21]: 0.534
BCL2L14 expression R*: Ratio to control [22]: 0.594 times
BCL2L14 expression log2 [ratio] [22]: −0.751
SOCS2 expression R*: Ratio to control [23]: 1.720 times
SOCS2 expression log2 [ratio] [23]: 0.783
NR4A1 expression R: Ratio to control [24]: 0.302 times
NR4A1 expression log2 [ratio] [24]: −1.727
IVD gene expression, R* ratio to control [25]: 1.473 times
IVD gene expression, log2 [ratio] [25]: 0.559
BMP10 gene expression, R* ratio to control [26]: 0.625 times
BMP10 gene expression, log2 [ratio] [26]: −0.678
SCO2 gene expression, R* ratio to control [27]: 1.495 times
SCO2 gene expression, log2 [ratio] [27]: 0.580
BNIP3L expression R*: Ratio to control [28]: 0.633 times
BNIP3L expression log2 [ratio] [28]: −0.661
ARHGEF6 expression R*: Ratio to control [29]: 0.270 times
ARHGEF6 expression log2 [ratio] [29]: −1.889
CCL27 gene expression, R* ratio to control [30]: 0.556 times
CCL27 gene expression, log2 [ratio] [30]: −0.846
TMEM195 gene expression, R* ratio to control [31]: 1.962 times
TMEM195 gene expression, log2 [ratio] [31]: 0.972
NRG1 gene expression, R* ratio to control [32]: 0.646 times
NRG1 gene expression, log2 [ratio] [32]: −0.830
BNIP3 expression R*: Ratio to control [33]: 0.374 times
BNIP3 expression log2 [ratio] [33]: −1.418
CEBPB expression R*: Ratio to control [34]: 0.617 times
CEBPB expression log2 [ratio] [34]: −0.697
BAK1 expression R*: Ratio to control [35]: 0.402 times
BAK1 expression log2 [ratio] [35]: −1.313
ANXA2 expression R*: Ratio to control [36]: 1.673 times
ANXA2 expression log2 [ratio] [36]: 0.742
